Test results from patent publication US7173133B2, “Diaza-spiropiperidine derivatives” (Hoffmann-La Roche Inc., priority 2004, dated 2007).

Target: T1, mGlyT-1b (Mus musculus, UniProt P28571)
T1 sequence (P28571 1-651 isoform P28571-2): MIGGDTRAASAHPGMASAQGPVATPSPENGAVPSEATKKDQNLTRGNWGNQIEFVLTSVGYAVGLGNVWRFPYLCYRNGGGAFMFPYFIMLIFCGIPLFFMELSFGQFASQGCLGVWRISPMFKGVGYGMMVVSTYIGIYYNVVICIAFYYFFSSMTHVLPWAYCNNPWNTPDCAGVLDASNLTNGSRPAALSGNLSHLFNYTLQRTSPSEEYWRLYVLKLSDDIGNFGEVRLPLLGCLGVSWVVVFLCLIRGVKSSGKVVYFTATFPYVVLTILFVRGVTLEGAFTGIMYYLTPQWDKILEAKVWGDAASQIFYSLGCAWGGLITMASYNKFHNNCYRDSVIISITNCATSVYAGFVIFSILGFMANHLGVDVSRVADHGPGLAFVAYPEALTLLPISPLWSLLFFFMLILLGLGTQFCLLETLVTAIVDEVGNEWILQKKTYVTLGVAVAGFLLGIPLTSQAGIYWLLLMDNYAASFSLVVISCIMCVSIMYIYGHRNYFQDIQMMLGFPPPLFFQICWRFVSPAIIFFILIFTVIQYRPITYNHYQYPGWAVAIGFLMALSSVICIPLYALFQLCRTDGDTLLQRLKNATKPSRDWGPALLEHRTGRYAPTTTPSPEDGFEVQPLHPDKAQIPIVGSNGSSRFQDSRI
Experiment: Glycine uptake inhibition assay (mGlyT-1b)
Format: cell-based
Conditions: [3H]-glycine uptake in Flp-in-CHO cells transfected with mGlyT-1b cDNA; values of some enantiomers
Protocol: DMEM complete medium: Nutrient mixture F-12 (Gibco Life-technologies), fetal bovine serum (FBS) 5%, (Gibco life technologies), Penicillin/Streptomycin1% (Gibco life technologies), Hygromycin 0.6 mg/ml (Gibco life technologies), Glutamine 1 mM Gibco life technologies).
Uptake buffer (UB): 150 mM NaCl, 10 mM Hepes-Tris, pH 7.4, 1 mM CaCl2, 2.5 mM KCl, 2.5 mM MgSO4, 10 mM (+) D-glucose.
Flp-in™-CHO (Invitrogen Cat n° R758–07) cells stably transfected with mGlyT1b cDNA.
Glycine Uptake Inhibition Assay (mGlyT-1b)
On day 1 mammalian cells, (Flp-in™-CHO), transfected with mGlyT-1b cDNA, were plated at the density of 40,000 cells/well in complete F-12 medium, without hygromycin in. 96-well culture plates. On day 2, the medium was aspirated and the cells were washed twice with uptake buffer (UB). The cells were then incubated for 20 min at 22° C. with either (i) no potential competitor, (ii) 10 mM non-radioactive glycine, (iii) a concentration of a potential inhibitor. […] A solution was then immediately added containing [^3H]-glycine 60 nM (11–16 Ci/mmol) and 25 μM non-radioactive glycine. The plates were incubated with gentle shaking and the reaction was stopped by aspiration of the mixture and washing (three times) with ice-cold UB. The cells were lysed with scintillation liquid, shaken 3 hours and the radioactivity in the cells was counted using a scintillation counter.

| SMILES | IC50 |
| --- | --- |
| O=C1NCC(c2ccccc2)C12CCN([C@@H]1CCCC[C@@H]1c1ccc(F)cc1)CC2 (mixture of isomers) [Example 6, cis-rac-8-[2-(4-Fluoro-phenyl)-cyclohexyl]-4-phenyl-2,8-diaza-spiro[4.5]decan-1-one] | 48 nM |
| Cc1ccc([C@H]2CCCC[C@H]2N2CCC3(CC2)C(=O)NCC3c2ccccc2)cc1 (mixture of isomers) [Example 2, Cis-rac-4-Phenyl-8-(2-p-tolyl-cyclohexyl)-2,8-diaza-spiro[4.5]decan-1-one] | 105 nM |
| O=C1NCC(c2ccc(F)cc2)C12CCN(C1CCCCC1(O)c1ccccc1F)CC2 (centres unmarked) [Example 16, 4-(4-Fluoro-phenyl)-8-[2-(2-fluoro-phenyl)-2-hydroxy-cyclohexyl]-2,8-diaza-spiro[4.5]decan-1-one] | 69 nM |
| O=C1NCC(c2ccc(F)cc2)C12CCN(C1COCCC1(O)c1ccccc1)CC2 (stereo not drawn) [Example 29, 4-(4-Fluoro-phenyl)-8-trans-(4-hydroxy-4-phenyl-tetrahydro-pyran-3-yl)-2,8-diaza-spiro[4.5]decan-1-one] | 91 nM |

The remaining molecules from weak to strong by IC50, led by results:

| IC50 | SMILES |
| --- | --- |
| 91 nM | O=C1NCC(c2ccc(F)cc2)C12CCN([C@@H]1CCCC[C@@H]1c1ccc(C(F)(F)F)cc1)CC2 (mixture of isomers) [Example 10, cis-rac-4-(4-Fluoro-phenyl)-8-[2-(4-trifluoromethyl-phenyl)-cyclohexyl]-2,8-diaza-spiro[4.5]decan-1-one] |
| 73 nM | O=C1NCC(c2ccc(F)cc2)C12CCN(C1CCCCC1(O)c1cccc(Cl)c1)CC2 (centres unmarked) [Example 17, 8-[2-(3-Chloro-phenyl)-2-hydroxy-cyclohexyl]-4-(4-fluoro-phenyl)-2,8-diaza-spiro[4.5]decan-1-one] |
| 70 nM | O=C1NCC(c2ccccc2)C12CCN(C1CCCCC1(O)c1ccc(F)cc1)CC2 (centres unmarked) [Example 11, 8-[2-(4-Fluoro-phenyl)-2-hydroxy-cyclohexyl]-4-phenyl-2,8-diaza-spiro[4.5]decan-1-one] |
| 61 nM | O=C1NCC(c2ccccc2)C12CCN([C@@H]1CCCC[C@@H]1c1ccccc1)CC2 (mixture of isomers) [Example 1, cis-rac-4-Phenyl-8-(2-phenyl-cyclohexyl)-2,8-diaza-spiro[4.5]decan-1-one] |
